Reference: ChEMBL document CHEMBL1201862, “PubChem BioAssay data set” (2004)
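1) Cells in 96-well plates. 2) Compound, 48 h, 5 concentrations. 3) Linear interpolation between surrounding doses. 4) Unreached endpoint = highest concentration. Here, GI50 denotes the concentration required for 50% inhibition of growth.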 Active and inactive are the calls of the source. Rule as the data show it: active = GI50 up to about 1.1 µM and inactive = higher.

Columns and labels:
Experiment in all cases: inhibition of tumour cell growth, NCI panel, 48 h
U-251 = system: U-251
HL-60 = system: HL-60
M14 = system: M14
MDA-N = system: MDA-N
PC-3 = system: PC-3
OVCAR-5 = system: OVCAR-5
CAKI-1 = system: CAKI-1
HCT-15 = system: HCT-15
NCI/ADR-RES = system: NCI/ADR-RES
UACC-257 = system: UACC-257
EKVX = system: EKVX
CCRF-CEM = system: CCRF-CEM
IGROV-1 = system: IGROV-1
HOP-62 = system: HOP-62
RPMI-8226 = system: RPMI-8226
MDA-MB-435 = system: MDA-MB-435
LOX IMVI = system: LOX IMVI
UO-31 = system: UO-31
SK-MEL-28 = system: SK-MEL-28
BT-549 = system: BT-549

SMILES | GI50 (U-251) | GI50 (HL-60) | GI50 (M14) | GI50 (MDA-N) | GI50 (PC-3) | GI50 (OVCAR-5) | GI50 (CAKI-1) | GI50 (HCT-15) | GI50 (NCI/ADR-RES) | GI50 (UACC-257) | GI50 (EKVX) | GI50 (CCRF-CEM) | GI50 (IGROV-1) | GI50 (HOP-62) | GI50 (RPMI-8226) | GI50 (MDA-MB-435) | GI50 (LOX IMVI) | GI50 (UO-31) | GI50 (SK-MEL-28) | GI50 (BT-549)
Oc1cc(-c2cccc(OC(F)(F)F)c2)nc2ccc(N3CCCC3)cc12 | < 0.0001 µM (active) | < 0.0001 µM (active) | 0.00012 µM (active) | < 0.0001 µM (active) | 0.000318 µM (active) | 0.000297 µM (active) | 0.01 µM (active) | 0.0004 µM | 0.00016 µM (active) | < 0.0001 µM (active) | 0.031 µM (active) | 0.00012 µM (active) | 0.00131 µM (active) | 0.000441 µM (active) | 0.000261 µM (active) | < 0.0001 µM (active) | 0.000205 µM (active) | 0.000555 µM (active) |  | 
O=C(O)CCSc1nnc(COc2ccc(Cl)cc2)n1-c1ccccc1 | > 100 µM (inactive) | > 100 µM (inactive) | > 100 µM (inactive) | > 100 µM (inactive) | > 100 µM (inactive) | > 100 µM (inactive) | > 100 µM (inactive) | > 100 µM | > 100 µM (inactive) | > 100 µM (inactive) | > 100 µM (inactive) | 95.3 µM (inactive) | > 100 µM (inactive) | > 100 µM (inactive) |  | > 100 µM (inactive) | > 100 µM (inactive) | > 100 µM (inactive) | > 100 µM (inactive) | 
COC1CCC(OC2CC(C3(C)CCC4(CC(O)C(C)C(C(C)/C=C(\C)C(=O)C(C)CC(C)C(=O)O)O4)O3)OC3(OC(C4OC(O)(CO)C(C)CC4C)CC3C)C2C)OC1C (stereo not given) | < 0.0166 µM (active) | < 0.01 µM (active) | 0.122 µM (active) | 0.0811 µM (active) | < 0.01 µM (active) | 2.99 µM (inactive) | 0.0982 µM (active) | 0.0351 µM |  | < 0.0199 µM (active) | 0.507 µM (active) | < 0.01 µM (active) | 1.79 µM (inactive) | < 0.0156 µM (active) | < 0.01 µM (active) | 0.0923 µM (active) | < 0.0253 µM (active) | 0.0548 µM (active) | 0.0362 µM (active) | < 0.0324 µM (active)
COC(=O)C(Cc1ccccc1)NC(=O)C(CCC(=O)OCc1ccccc1)NC(=O)OC(C)(C)C (stereo not given) | > 100 µM (inactive) | 54.8 µM (inactive) | > 100 µM (inactive) |  | 81.7 µM (inactive) | > 100 µM (inactive) | > 100 µM (inactive) | 85.5 µM | > 100 µM (inactive) | > 100 µM (inactive) | > 100 µM (inactive) | 64.9 µM (inactive) | > 100 µM (inactive) | > 100 µM (inactive) | 25 µM (inactive) | > 100 µM (inactive) | 30.3 µM (inactive) | 26.1 µM (inactive) | > 100 µM (inactive) | > 100 µM (inactive)
C[C@@]1(O)CC[C@]2(C)C3CCCC3[C@H]12 (stereo not given in full) | > 100 µM (inactive) | > 100 µM (inactive) | > 100 µM (inactive) |  |  | > 100 µM (inactive) | > 100 µM (inactive) | > 100 µM |  | > 100 µM (inactive) | > 100 µM (inactive) | > 100 µM (inactive) | > 100 µM (inactive) | > 100 µM (inactive) | > 100 µM (inactive) |  | > 100 µM (inactive) | > 100 µM (inactive) | > 100 µM (inactive) | 
N#C/C(c1nc2ccccc2[nH]1)=c1\s/c(=C/c2ccc(Cl)cc2)c(=O)n1-c1ccccc1 | > 100 µM (inactive) | > 100 µM (inactive) | > 100 µM (inactive) |  |  | > 100 µM (inactive) | > 100 µM (inactive) | > 100 µM |  | > 100 µM (inactive) | > 100 µM (inactive) | > 100 µM (inactive) | 15.7 µM (inactive) | > 100 µM (inactive) | > 100 µM (inactive) |  | > 100 µM (inactive) | > 100 µM (inactive) | > 100 µM (inactive) | 
O=[N+]([O-])c1ccc2c(c1)nc1n2C(c2c(F)cccc2F)SC1 (stereo not given) | > 74.1 µM (inactive) | > 100 µM (inactive) | > 100 µM (inactive) | > 100 µM (inactive) | > 100 µM (inactive) | > 100 µM (inactive) |  | > 100 µM | > 100 µM (inactive) | > 100 µM (inactive) | > 100 µM (inactive) | > 100 µM (inactive) | > 100 µM (inactive) | > 100 µM (inactive) | > 100 µM (inactive) | > 100 µM (inactive) | > 100 µM (inactive) |  | > 100 µM (inactive) | 
O=C(O)c1cccc(S(=O)(=O)NN2C(=O)CSC2c2ccccc2Cl)c1 (stereo not given) | > 100 µM (inactive) | > 100 µM (inactive) | > 100 µM (inactive) | > 100 µM (inactive) | > 100 µM (inactive) | > 100 µM (inactive) | > 100 µM (inactive) | > 100 µM |  | > 100 µM (inactive) | > 100 µM (inactive) | > 100 µM (inactive) | > 100 µM (inactive) | > 100 µM (inactive) | 81.3 µM (inactive) | > 100 µM (inactive) | > 100 µM (inactive) | > 100 µM (inactive) | > 100 µM (inactive) | > 100 µM (inactive)
CCCC(=O)N(C)/N=N/c1ccc(C(=O)OCC)cc1 | > 100 µM (inactive) | > 100 µM (inactive) | > 100 µM (inactive) | > 100 µM (inactive) | > 100 µM (inactive) | > 100 µM (inactive) | > 100 µM (inactive) | > 100 µM |  | > 100 µM (inactive) | 15.2 µM (inactive) | > 100 µM (inactive) | > 100 µM (inactive) | > 100 µM (inactive) | > 100 µM (inactive) |  | > 100 µM (inactive) | 42.6 µM (inactive) | > 100 µM (inactive) | > 100 µM (inactive)
Cc1ccc2oc3c(c(Br)c(Br)n3C)c(=O)c2c1 | 18.2 µM (inactive) | > 100 µM (inactive) | 31.3 µM (inactive) |  | 35 µM (inactive) | 41.6 µM (inactive) | 28.4 µM (inactive) | > 100 µM | 20.4 µM (inactive) | 65.5 µM (inactive) | 10.4 µM (inactive) | > 100 µM (inactive) | 10.5 µM (inactive) | 17 µM (inactive) | > 100 µM (inactive) | > 100 µM (inactive) | 31.3 µM (inactive) | 13.9 µM (inactive) | > 100 µM (inactive) | > 100 µM (inactive)
CCCN1CCC(=O)N(CCC(F)(F)C(F)(F)C(F)(F)C(F)(F)C(F)(F)C(F)(F)F)C1=S | > 100 µM (inactive) | > 100 µM (inactive) | > 100 µM (inactive) | > 100 µM (inactive) | > 100 µM (inactive) | > 100 µM (inactive) | > 100 µM (inactive) |  |  | > 100 µM (inactive) | > 100 µM (inactive) | > 100 µM (inactive) | > 100 µM (inactive) | > 100 µM (inactive) |  | > 100 µM (inactive) |  | > 100 µM (inactive) | > 100 µM (inactive) | > 100 µM (inactive)
COc1ccc(CCNC(=S)NC=C2C(=O)c3ccccc3C2=O)cc1OC | > 100 µM (inactive) | 93.1 µM (inactive) | > 100 µM (inactive) | > 100 µM (inactive) | > 100 µM (inactive) | > 100 µM (inactive) | > 100 µM (inactive) | > 100 µM | > 100 µM (inactive) | > 100 µM (inactive) | > 100 µM (inactive) | > 100 µM (inactive) | > 100 µM (inactive) | > 100 µM (inactive) | 17.9 µM (inactive) | > 100 µM (inactive) | > 100 µM (inactive) | 27.7 µM (inactive) | > 100 µM (inactive) | 
O=C(O)C1=CN(c2ccncc2)C(c2ccco2)=CC1c1ccccc1[N+](=O)[O-] (stereo not given) | 6.31 µM (inactive) | 3.19 µM (inactive) | 10.7 µM (inactive) |  | 13.9 µM (inactive) | 7.13 µM (inactive) | 16.5 µM (inactive) | 2.05 µM | 22.9 µM (inactive) | 2.31 µM (inactive) | 6.58 µM (inactive) | 2.69 µM (inactive) | 2 µM (inactive) | 13.8 µM (inactive) | 2.67 µM (inactive) | 15.1 µM (inactive) | 1.97 µM (inactive) | 10.4 µM (inactive) | 12.8 µM (inactive) | 12.1 µM (inactive)
Cc1ccc(/N=C2/S/C(=C3/CCC=C3N3CCOCC3)N(c3ccc(Cl)cc3)/C2=N/c2ccc(C)cc2)cc1 | > 100 µM (inactive) | > 100 µM (inactive) | > 100 µM (inactive) | > 100 µM (inactive) | > 100 µM (inactive) | > 100 µM (inactive) |  | > 100 µM |  | > 100 µM (inactive) | > 100 µM (inactive) |  | > 100 µM (inactive) | > 100 µM (inactive) | > 100 µM (inactive) |  |  | > 100 µM (inactive) | > 100 µM (inactive) | > 100 µM (inactive)
CC[C@]1(Cc2ccc(OC)c(OC)c2)[C@@H]2C[C@@H](C(=O)OC)ON2O[C@H](OC2CCCC2(c2ccccc2)c2ccccc2)[C@@H]1OC(C)=O (stereo not given in full) | > 100 µM (inactive) |  | > 100 µM (inactive) |  |  | > 100 µM (inactive) | > 100 µM (inactive) | > 100 µM | > 100 µM (inactive) | > 100 µM (inactive) | > 100 µM (inactive) | > 100 µM (inactive) | > 100 µM (inactive) | > 100 µM (inactive) |  | > 100 µM (inactive) | > 100 µM (inactive) | > 100 µM (inactive) | > 100 µM (inactive) | > 100 µM (inactive)
CCCNC1=Nc2ccccc2[C@@H]2N(C)c3ccccc3C(C)C[C@]12C (stereo not given in full) |  | 33.3 µM (inactive) | 17.7 µM (inactive) | 20.5 µM (inactive) | 16 µM (inactive) | 15.1 µM (inactive) | 26.3 µM (inactive) | 23.6 µM | 22.4 µM (inactive) | 12.9 µM (inactive) | 32.4 µM (inactive) | 26 µM (inactive) | 17.8 µM (inactive) | 16.4 µM (inactive) | 18.7 µM (inactive) | 17.8 µM (inactive) | 13.3 µM (inactive) | 27.9 µM (inactive) | 18.3 µM (inactive) | 
